Results taken from patent US20240424109A1, “GLUCOSE-[…] CONJUGATES COMPRISING A TETRA-VALENT SUGAR CLUSTER FOR TREATMENT OF DIABETES” (Merck Sharp & Dohme LLC, priority 2021, published 2024).

Columns and labels:
[1] = target: T1, Human macrophage mannose receptor 1 (MRC1) (Homo sapiens, UniProt P22897); assay: Human macrophage mannose receptor 1 (MRC1) competition binding assay; conditions: competition against Eu-labeled mannosylated-BSA
T1 sequence (P22897 19-1456): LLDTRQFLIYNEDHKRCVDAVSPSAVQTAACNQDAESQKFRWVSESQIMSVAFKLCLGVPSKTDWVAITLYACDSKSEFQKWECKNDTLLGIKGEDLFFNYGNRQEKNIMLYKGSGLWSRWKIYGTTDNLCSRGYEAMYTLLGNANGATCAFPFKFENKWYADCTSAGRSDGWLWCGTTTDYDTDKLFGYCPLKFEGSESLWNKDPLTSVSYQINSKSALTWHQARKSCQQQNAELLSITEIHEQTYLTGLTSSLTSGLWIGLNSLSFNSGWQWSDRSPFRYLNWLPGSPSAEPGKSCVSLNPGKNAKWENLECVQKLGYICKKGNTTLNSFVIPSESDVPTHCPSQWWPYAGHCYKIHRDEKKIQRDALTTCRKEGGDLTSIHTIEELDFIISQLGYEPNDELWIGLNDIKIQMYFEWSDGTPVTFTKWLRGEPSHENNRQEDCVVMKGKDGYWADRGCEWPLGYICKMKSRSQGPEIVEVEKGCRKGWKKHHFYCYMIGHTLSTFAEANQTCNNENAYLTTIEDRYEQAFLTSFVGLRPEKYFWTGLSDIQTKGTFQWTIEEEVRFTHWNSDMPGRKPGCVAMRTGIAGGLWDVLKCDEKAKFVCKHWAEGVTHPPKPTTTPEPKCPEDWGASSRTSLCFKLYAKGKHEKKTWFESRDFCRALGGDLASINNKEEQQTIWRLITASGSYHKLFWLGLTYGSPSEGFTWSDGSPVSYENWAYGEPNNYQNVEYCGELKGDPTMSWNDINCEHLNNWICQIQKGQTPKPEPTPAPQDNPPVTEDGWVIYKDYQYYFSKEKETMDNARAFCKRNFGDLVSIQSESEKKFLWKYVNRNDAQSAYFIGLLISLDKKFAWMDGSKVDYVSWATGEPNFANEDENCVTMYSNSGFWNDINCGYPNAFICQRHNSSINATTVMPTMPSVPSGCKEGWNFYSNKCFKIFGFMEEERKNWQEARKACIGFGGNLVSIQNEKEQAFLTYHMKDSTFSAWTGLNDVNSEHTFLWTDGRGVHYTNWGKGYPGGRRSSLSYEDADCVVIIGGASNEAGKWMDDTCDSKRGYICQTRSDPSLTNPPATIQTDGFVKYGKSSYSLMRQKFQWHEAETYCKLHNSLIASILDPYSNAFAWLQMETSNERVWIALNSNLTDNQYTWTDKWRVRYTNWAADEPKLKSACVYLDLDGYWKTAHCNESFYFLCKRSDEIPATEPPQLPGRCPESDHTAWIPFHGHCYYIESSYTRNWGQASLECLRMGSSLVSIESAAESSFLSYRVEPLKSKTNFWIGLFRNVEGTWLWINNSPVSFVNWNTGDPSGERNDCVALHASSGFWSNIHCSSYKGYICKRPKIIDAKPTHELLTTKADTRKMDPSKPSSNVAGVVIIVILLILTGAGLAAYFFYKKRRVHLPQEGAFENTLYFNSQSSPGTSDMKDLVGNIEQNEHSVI
Experimental: The competition binding assay for MRC1 utilized a ligand, mannosylated-BSA labeled with the DELFIA Eu-N1-ITC reagent (labeling kit for europium labeling of proteins and polypetides for use in dissociation-enhanced time-resolved fluorometric assay), as reported in the literature. Assay was performed either in a 96-well plate with 100 μL well volume (Method E) or in a 384-well plate with 25 μL well volume (Method F). […] The antibody was incubated in the plate for 1 h at rt with shaking. The plate was washed with wash buffer 3-5 times followed by addition of MRC1 (2 ng/μl final concentration) in PBS containing 1% stabilizer BSA. The plate was incubated at rt with gentle shaking for 1 h. The plate was washed three times with wash buffer. […]
(§1) The in vitro biological activities towards insulin receptor (IR) were measured by either ligand competition assays or functional phosphorylation assays, as described above, labeled as following: Method A: IR phosphorylation assay based on 96-well; Method B: IR phosphorylation assay based on 384-well with automated liquid dispense; Method C: cell-based IR binding assay; Method D: SPA IR binding assay method E; Method E: MRC1 assay was performed in a 96-well plate; Method F: MRC1 assay was performed in a 384-well plate.

[2] = target: T2, human insulin receptor type B (IR(B)) (Homo sapiens, UniProt P06213); assay: Insulin receptor competition binding assay (125[I]-insulin; whole cell or SPA)
T2 construct: expressed in transfected cells; host or cells: CHO cells (G418 selection)
T2 sequence (P06213 28-758 limits assumed): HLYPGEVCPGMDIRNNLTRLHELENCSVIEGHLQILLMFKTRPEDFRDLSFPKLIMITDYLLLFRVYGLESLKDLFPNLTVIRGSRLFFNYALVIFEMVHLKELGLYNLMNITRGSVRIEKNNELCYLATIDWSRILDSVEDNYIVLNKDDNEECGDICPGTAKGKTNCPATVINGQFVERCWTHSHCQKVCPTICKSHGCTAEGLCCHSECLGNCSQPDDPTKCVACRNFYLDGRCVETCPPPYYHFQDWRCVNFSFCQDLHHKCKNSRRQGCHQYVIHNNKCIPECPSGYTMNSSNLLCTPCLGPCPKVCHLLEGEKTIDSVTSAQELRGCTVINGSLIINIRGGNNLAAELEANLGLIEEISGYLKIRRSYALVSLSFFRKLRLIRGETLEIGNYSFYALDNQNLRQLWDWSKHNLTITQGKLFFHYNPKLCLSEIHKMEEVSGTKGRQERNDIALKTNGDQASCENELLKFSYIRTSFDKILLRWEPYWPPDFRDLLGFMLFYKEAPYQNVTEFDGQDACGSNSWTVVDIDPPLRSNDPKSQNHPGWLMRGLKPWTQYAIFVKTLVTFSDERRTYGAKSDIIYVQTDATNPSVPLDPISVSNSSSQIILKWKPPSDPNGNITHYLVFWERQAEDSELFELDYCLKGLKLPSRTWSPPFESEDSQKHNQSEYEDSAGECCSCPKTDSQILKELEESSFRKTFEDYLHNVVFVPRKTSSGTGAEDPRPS
T2 sequence (P06213 763-1382 limits assumed): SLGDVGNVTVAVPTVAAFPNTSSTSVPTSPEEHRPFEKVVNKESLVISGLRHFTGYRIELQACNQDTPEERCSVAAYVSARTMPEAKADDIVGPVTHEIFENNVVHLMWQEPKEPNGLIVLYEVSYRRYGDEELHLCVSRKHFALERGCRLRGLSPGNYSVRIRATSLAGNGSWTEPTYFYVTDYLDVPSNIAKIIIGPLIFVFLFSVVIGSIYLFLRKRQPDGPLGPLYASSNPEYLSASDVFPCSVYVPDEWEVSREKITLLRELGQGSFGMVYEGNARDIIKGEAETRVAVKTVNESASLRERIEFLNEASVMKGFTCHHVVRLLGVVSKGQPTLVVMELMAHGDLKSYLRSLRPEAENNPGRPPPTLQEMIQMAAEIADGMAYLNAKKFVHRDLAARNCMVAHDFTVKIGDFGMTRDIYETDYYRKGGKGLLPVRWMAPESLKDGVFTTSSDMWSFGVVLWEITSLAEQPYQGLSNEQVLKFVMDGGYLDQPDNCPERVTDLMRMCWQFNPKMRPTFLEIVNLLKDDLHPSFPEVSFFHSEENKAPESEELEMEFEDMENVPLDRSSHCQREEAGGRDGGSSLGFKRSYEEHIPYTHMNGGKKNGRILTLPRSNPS
Experimental: Method D: IR binding assay was run in a scintillation proximity assay (SPA) in 384-well format using cell membranes prepared from CHO cells overexpressing human IR(B) grown in F12 media containing 10% FBS and antibiotics (G418, Penicillin/[…]).
as §1

| SMILES | IC50 [1] [nM] | IC50 [2] [nM] |
| --- | --- | --- |
| CC[C@H](C)[C@H](NC(=O)CN)C(=O)N[C@H](C(=O)N[C@@H](CCC(=O)O)C(=O)N[C@@H](CCC(N)=O)C(=O)N[C@H]1CSSC[C@@H]2NC(=O)[C@H]([C@@H](C)CC)NC(=O)[C@H](CO)NC(=O)[C@H]([C@@H](C)O)NC(=O)[C@H](CSSC[C@H](NC(=O)[C@H](CC(C)C)NC(=O)[C@H](Cc3c[nH]cn3)NC(=O)[C@H](CCC(N)=O)NC(=O)[C@H](CC(N)=O)NC(=O)[C@@H](NC(=O)[C@H](Cc3ccccc3)NC(=O)CCCCCNC(=O)CCCCC(=O)N(CC(=O)N(CCO[C@H]3O[C@H](CO)[C@@H](O)[C@H](O)[C@@H]3O)CCO[C@H]3O[C@H](CO)[C@@H](O)[C@H](O)[C@@H]3O)CC(=O)N(CCO[C@H]3O[C@H](CO)[C@@H](O)[C@H](O)[C@@H]3O)CCO[C@H]3O[C@H](CO)[C@@H](O)[C@H](O)[C@@H]3O)C(C)C)C(=O)NCC(=O)N[C@@H](CO)C(=O)N[C@@H](Cc3c[nH]cn3)C(=O)N[C@@H](CC(C)C)C(=O)N[C@@H](C(C)C)C(=O)N[C@@H](CCC(=O)O)C(=O)N[C@@H](C)C(=O)N[C@@H](CC(C)C)C(=O)N[C@@H](Cc3ccc(O)cc3)C(=O)N[C@@H](CC(C)C)C(=O)N[C@@H](C(C)C)C(=O)N[C@H](C(=O)NCC(=O)N[C@@H](CCC(=O)O)C(=O)N[C@@H](CCCNC(=N)N)C(=O)NCC(=O)N[C@@H](Cc3ccccc3)C(=O)N[C@@H](Cc3ccccc3)C(=O)N[C@@H](Cc3ccc(O)cc3)C(=O)N[C@H](C(=O)N3CCC[C@H]3C(=O)N[C@@H](CCCCNC(=O)CCCCCNC(=O)CCCCC(=O)N(CC(=O)N(CCO[C@H]3O[C@H](CO)[C@@H](O)[C@H](O)[C@@H]3O)CCO[C@H]3O[C@H](CO)[C@@H](O)[C@H](O)[C@@H]3O)CC(=O)N(CCO[C@H]3O[C@H](CO)[C@@H](O)[C@H](O)[C@@H]3O)CCO[C@H]3O[C@H](CO)[C@@H](O)[C@H](O)[C@@H]3O)C(=O)N[C@H](C(=O)O)[C@@H](C)O)[C@@H](C)O)CSSC[C@@H](C(=O)N[C@@H](CC(N)=O)C(=O)O)NC(=O)[C@H](Cc3ccc(O)cc3)NC(=O)[C@H](CC(N)=O)NC(=O)[C@H](CCC(=O)O)NC(=O)[C@H](CC(C)C)NC(=O)[C@H](CCC(N)=O)NC(=O)[C@H](Cc3ccc(O)cc3)NC(=O)[C@H](CC(C)C)NC(=O)[C@H](CO)NC2=O)NC1=O)C(C)C [IOC-32] | 2.58 |  |
| CC[C@H](C)[C@H](NC(=O)CN)C(=O)N[C@H](C(=O)N[C@@H](CCC(=O)O)C(=O)N[C@@H](CCC(N)=O)C(=O)N[C@H]1CSSC[C@@H]2NC(=O)[C@H]([C@@H](C)CC)NC(=O)[C@H](CO)NC(=O)[C@H]([C@@H](C)O)NC(=O)[C@H](CSSC[C@H](NC(=O)[C@H](CC(C)C)NC(=O)[C@H](Cc3c[nH]cn3)NC(=O)[C@H](CCC(N)=O)NC(=O)[C@H](CC(N)=O)NC(=O)[C@@H](NC(=O)[C@H](Cc3ccccc3)NC(=O)CCCCC(=O)N(CC(=O)N(CCO[C@H]3O[C@H](CO)[C@@H](O)[C@H](O)[C@@H]3O)CCO[C@H]3O[C@H](CO)[C@@H](O)[C@H](O)[C@@H]3O)CC(=O)N(CCO[C@H]3O[C@H](CO)[C@@H](O)[C@H](O)[C@@H]3O)CCO[C@H]3O[C@H](CO)[C@@H](O)[C@H](O)[C@@H]3O)C(C)C)C(=O)NCC(=O)N[C@@H](CO)C(=O)N[C@@H](Cc3c[nH]cn3)C(=O)N[C@@H](CC(C)C)C(=O)N[C@@H](C(C)C)C(=O)N[C@@H](CCC(=O)O)C(=O)N[C@@H](C)C(=O)N[C@@H](CC(C)C)C(=O)N[C@@H](Cc3ccc(O)cc3)C(=O)N[C@@H](CC(C)C)C(=O)N[C@@H](C(C)C)C(=O)N[C@H](C(=O)NCC(=O)N[C@@H](CCC(=O)O)C(=O)N[C@@H](CCCNC(=N)N)C(=O)NCC(=O)N[C@@H](Cc3ccccc3)C(=O)N[C@@H](Cc3ccccc3)C(=O)N[C@@H](Cc3ccc(O)cc3)C(=O)N[C@H](C(=O)N3CCC[C@H]3C(=O)N[C@@H](CCCCNC(=O)CCCCC(=O)N(CC(=O)N(CCO[C@H]3O[C@H](CO)[C@@H](O)[C@H](O)[C@@H]3O)CCO[C@H]3O[C@H](CO)[C@@H](O)[C@H](O)[C@@H]3O)CC(=O)N(CCO[C@H]3O[C@H](CO)[C@@H](O)[C@H](O)[C@@H]3O)CCO[C@H]3O[C@H](CO)[C@@H](O)[C@H](O)[C@@H]3O)C(=O)N[C@H](C(=O)O)[C@@H](C)O)[C@@H](C)O)CSSC[C@@H](C(=O)N[C@@H](CC(N)=O)C(=O)O)NC(=O)[C@H](Cc3ccc(O)cc3)NC(=O)[C@H](CC(N)=O)NC(=O)[C@H](CCC(=O)O)NC(=O)[C@H](CC(C)C)NC(=O)[C@H](CCC(N)=O)NC(=O)[C@H](Cc3ccc(O)cc3)NC(=O)[C@H](CC(C)C)NC(=O)[C@H](CO)NC2=O)NC1=O)C(C)C [IOC-31] |  | 0.9 |
